The values that follow come from patent publication US20140170237A1, “ANTIMICROBIAL COMPOSITIONS CONTAINING MIXTURES OF FATTY AND HYDROXYL CARBOXYLIC ACIDS” (priority 2012, published 2014).

“Also recorded” adds a separate entry of the source.

A short description of this data set: Cold solubility / 4 C storage of commercial fatty acids and their mixtures. In kind it is physicochemical. The settings on record: 1 day, no solvent or surfactant.

For `CCCCCCCCCCCC(=O)O` [C12, dodecanoic], the “4 C. Storage, physical state” value is “solid or formed crystals; also recorded: Solid”.
